From patent publication US12115180B2 (Board of Supervisors of Louisiana State University and …, priority 2020, dated 2024)

Tests used:
[1] = pKa and protonation of the side-chain amines; format: physicochemical
[2] = tested on: neonatal rat cardiomyocytes (NRCs); assay: Lactate dehydrogenase release assay for cardiac myocytes; format: cell-based, Sprague Dawley rat; conditions: 5 μM, 10 μM, and 25 μM; 24 h
Description: (§1) Cell Lines and Maintenance. Primary Neonatal Rat Cardiomyocyte Culture. The inventors isolated neonatal rat cardiomyocytes (NRCs) from the ventricles of 1-2 day old Sprague Dawley rat pups as described previously. Briefly, ventricular tissues excised from rat pups were digested with collagenase at 4° C. overnight with subsequent digestion in trypsin. Next, cells were preplated to remove cardiac fibroblasts, followed by plating of isolated cardiomyocytes at 1.5×10^6 cells per 10 cm^2 plate in αMEM containing 10% fetal bovine serum (FBS) (Gibco) and 1% antibiotic-antimycotic (Gibco) media. After 24 h, NRCs were maintained in Dulbecco's modified Eagle's medium (DMEM) (Gibco) containing 2% FBS and 1% antibiotic-antimycotic and subjected to different treatments, as described previously. All cell culture treatments were repeated in three independent experiments.
Biochemical Assays. Lactate Dehydrogenase Release Assay for Cardiac Myocytes. Following treatments, culture media were collected and cleared by centrifugation at 5000 g for 10 min. Lactate dehydrogenase (LDH) release into culture media was measured using a cytotoxicity detection kit (Roche®) as per the manufacturer's instructions. Color development was measured using a microplate absorbance reader at an absorbance of 492 nm (Bio-Rad®).

p53 = assay: Western blot of p53 expression in NRCs; format: cell-based, Sprague Dawley rat; conditions: 10 μM, 24 h
Description: as §1
Protein Extraction and Western Blot Analyses. NRCs were washed with PBS and lysed with CelLytic M (Sigma-Aldrich) lysis buffer containing a complete protease inhibitor cocktail (Roche®). […] The protein concentration of the soluble cardiomyocyte lysates was measured using the modified Bradford reagent relative to a BSA standard curve (Bio-Rad®) in a 1 mL cuvette on a DS-11 FX+ spectrophotometer (DeNovix®, Wilmington, DE). […]

| Compound | pKa [1] | fraction protonated ([1]; pH 4.5) | fraction protonated ([1]; pH 5.5) | LDH release (cell death) [2] | p53 protein expression (p53) |
| --- | --- | --- | --- | --- | --- |
| NCCN1CCCC1 [PY, 2-pyrrolidine-1-yl-ethyl-amine] | 5.4 | 89% | 44% |  |  |
| CCCCN(CCN)CCCC | 4 | 24% | 3% |  |  |
| COc1cccc2c1C(=O)c1c(O)c3c(c(O)c1C2=O)C[C@@](O)(C(=O)CO)C[C@@H]3O[C@H]1C[C@H](N)[C@H](O)[C@H](C)O1 [con-DOX, doxorubicin] |  |  |  | dose-dependent increase in cell death | increased p53 expression |
